These results are taken from ChEMBL document CHEMBL1201862, “PubChem BioAssay data set” (2004).

The target of test [1] is T1, Lysine-specific demethylase 4C (Homo sapiens, UniProt Q9H3R0).
T1 sequence (Q9H3R0 whole entry): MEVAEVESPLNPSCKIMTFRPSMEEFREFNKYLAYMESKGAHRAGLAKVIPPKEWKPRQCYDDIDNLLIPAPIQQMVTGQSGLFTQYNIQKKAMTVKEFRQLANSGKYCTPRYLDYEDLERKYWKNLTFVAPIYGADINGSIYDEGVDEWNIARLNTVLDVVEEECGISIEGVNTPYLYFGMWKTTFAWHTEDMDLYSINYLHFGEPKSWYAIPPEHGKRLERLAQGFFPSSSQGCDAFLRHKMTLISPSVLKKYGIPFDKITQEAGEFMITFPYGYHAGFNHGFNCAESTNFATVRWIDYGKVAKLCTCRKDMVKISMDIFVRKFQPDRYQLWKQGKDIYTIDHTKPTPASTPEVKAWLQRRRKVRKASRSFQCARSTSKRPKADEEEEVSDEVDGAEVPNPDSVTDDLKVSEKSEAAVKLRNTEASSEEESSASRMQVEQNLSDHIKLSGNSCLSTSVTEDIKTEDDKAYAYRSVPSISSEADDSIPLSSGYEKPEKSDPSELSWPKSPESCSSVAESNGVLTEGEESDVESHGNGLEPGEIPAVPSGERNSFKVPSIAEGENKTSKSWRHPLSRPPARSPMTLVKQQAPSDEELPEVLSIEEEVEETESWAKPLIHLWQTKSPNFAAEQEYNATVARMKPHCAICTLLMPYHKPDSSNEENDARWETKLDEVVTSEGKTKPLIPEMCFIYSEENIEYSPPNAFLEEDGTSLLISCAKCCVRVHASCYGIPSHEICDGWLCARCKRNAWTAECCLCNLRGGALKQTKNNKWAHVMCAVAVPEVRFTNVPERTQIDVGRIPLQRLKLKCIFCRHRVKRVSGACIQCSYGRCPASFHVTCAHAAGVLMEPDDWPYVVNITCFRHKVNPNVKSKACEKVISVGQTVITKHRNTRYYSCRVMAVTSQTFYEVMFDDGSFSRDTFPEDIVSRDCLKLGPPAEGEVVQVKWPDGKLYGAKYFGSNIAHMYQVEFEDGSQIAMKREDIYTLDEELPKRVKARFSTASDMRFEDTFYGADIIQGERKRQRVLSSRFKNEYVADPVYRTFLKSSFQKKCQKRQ
Put plainly: inhibition of JMJD2C H3K9me3 demethylation – biochemical, DELFIA europium, cherry-picked samples, dose response (AID 488835). Format: functional.

The target in test [2] is Serine/threonine-protein kinase Chk1 (Homo sapiens, UniProt O14757). The class given is functional.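 Note: measured as one member of a kinome-wide kinase profiling panel.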
Chain of Serine/threonine-protein kinase Chk1 (O14757 whole entry): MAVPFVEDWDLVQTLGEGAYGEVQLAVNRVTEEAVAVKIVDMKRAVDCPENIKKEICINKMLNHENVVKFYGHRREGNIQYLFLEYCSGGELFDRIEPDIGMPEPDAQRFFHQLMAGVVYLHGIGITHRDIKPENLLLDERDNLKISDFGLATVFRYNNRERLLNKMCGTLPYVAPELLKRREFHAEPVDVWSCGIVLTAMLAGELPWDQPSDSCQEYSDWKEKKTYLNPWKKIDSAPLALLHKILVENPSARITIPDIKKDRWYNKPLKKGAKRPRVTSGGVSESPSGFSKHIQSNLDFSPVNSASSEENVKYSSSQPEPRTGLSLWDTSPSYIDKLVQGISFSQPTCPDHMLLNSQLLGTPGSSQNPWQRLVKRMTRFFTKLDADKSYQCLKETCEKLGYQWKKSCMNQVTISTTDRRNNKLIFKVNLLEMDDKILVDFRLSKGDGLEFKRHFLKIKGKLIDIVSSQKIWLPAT
Test [3] deals with Serine/threonine-protein kinase Nek2 (Homo sapiens, UniProt P51955). The class given is functional.
Chain of Serine/threonine-protein kinase Nek2 (P51955 whole entry): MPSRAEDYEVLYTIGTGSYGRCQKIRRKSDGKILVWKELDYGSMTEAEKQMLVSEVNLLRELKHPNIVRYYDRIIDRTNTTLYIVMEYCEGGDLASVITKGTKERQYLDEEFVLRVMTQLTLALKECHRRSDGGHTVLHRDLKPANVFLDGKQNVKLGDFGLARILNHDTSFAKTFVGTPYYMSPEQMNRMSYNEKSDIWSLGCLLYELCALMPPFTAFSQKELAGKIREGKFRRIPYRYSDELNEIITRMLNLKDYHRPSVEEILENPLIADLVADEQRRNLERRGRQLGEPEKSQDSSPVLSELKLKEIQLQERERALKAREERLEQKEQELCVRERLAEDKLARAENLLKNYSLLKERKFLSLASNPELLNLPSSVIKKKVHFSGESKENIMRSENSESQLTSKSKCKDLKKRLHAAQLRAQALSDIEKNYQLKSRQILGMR
Test [4] has as its target Mast/stem cell growth factor receptor Kit (Homo sapiens, UniProt P10721). The class given is functional.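 Note: KIT entry within a kinase panel assay.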
The target in test [5] is MAP/microtubule affinity-regulating kinase 3 (Homo sapiens, UniProt P27448). The class given is functional.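 Note: MARK3 affinity measured as one member of a kinome panel.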
Chain of MAP/microtubule affinity-regulating kinase 3 (P27448 whole entry): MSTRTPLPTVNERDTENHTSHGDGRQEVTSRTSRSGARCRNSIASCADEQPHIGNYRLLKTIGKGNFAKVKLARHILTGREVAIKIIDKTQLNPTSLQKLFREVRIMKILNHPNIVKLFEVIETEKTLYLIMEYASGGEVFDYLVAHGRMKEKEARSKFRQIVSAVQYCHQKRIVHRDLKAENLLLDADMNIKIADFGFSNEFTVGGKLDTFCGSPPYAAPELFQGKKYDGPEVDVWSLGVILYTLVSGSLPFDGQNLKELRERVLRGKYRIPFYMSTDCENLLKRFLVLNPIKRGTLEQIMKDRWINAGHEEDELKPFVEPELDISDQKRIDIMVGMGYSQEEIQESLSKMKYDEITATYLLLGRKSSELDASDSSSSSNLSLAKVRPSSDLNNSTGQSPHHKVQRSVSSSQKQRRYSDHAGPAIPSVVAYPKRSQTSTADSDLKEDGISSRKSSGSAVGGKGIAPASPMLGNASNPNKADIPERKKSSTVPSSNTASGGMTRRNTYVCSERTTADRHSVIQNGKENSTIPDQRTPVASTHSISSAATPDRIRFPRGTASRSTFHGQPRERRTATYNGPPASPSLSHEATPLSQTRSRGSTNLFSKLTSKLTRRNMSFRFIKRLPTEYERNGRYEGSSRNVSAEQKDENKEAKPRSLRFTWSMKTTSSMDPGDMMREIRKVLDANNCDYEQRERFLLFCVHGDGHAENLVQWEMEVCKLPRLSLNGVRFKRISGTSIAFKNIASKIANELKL
For test [6], the target named is Mitogen-activated protein kinase 10 (Homo sapiens, UniProt P53779). Put plainly: Navigating the Kinome. Panel member name: MAPK10. Format: functional.
Chain of Mitogen-activated protein kinase 10 (P53779 whole entry): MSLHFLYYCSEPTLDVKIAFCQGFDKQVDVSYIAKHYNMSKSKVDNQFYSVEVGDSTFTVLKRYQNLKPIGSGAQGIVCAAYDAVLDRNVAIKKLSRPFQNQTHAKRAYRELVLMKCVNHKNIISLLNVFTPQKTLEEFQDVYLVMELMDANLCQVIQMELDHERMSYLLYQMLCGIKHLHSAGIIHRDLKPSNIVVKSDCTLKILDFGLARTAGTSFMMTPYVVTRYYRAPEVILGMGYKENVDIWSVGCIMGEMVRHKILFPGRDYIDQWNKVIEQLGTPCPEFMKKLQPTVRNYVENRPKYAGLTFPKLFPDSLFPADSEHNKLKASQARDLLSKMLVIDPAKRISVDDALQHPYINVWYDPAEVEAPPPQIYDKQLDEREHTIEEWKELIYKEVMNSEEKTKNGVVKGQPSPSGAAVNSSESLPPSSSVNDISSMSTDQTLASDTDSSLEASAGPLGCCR
Test [7] has as its system Streptococcus sp. 'group A'. As to the kind of experiment: Streptococcus pyogenes SK(-)GAS viability under kanamycin – luminescence, BacTiterGlo, confirmation, counter-screen for streptokinase expression inhibitor project, dose response (AID 1900). Format: functional, organism-based. (In general: Counterscreens check selectivity or assay interference.)
In test [8] the target is T2, Heat shock factor protein 1 (Mus musculus, UniProt P38532).
T2 sequence (P38532 whole entry): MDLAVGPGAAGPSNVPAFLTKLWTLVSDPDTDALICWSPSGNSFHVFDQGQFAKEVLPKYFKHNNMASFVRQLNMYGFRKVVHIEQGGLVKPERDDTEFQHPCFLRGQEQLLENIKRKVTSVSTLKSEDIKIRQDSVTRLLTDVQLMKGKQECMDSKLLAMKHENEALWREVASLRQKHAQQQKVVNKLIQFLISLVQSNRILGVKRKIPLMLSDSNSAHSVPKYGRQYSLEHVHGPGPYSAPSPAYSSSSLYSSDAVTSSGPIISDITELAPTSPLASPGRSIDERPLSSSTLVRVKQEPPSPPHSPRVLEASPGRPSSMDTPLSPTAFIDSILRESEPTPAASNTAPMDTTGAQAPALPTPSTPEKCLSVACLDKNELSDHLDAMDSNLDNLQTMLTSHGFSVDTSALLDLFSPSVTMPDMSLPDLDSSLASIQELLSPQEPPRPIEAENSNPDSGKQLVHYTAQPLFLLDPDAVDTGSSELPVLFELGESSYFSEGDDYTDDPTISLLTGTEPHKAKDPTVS
Put plainly: decrease of HSF1-responsive luciferase luminescence – cell-based, NIH3T3, dose retest, confirmation (AID 2382).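 Note: NIH3T3 fibroblasts with HSF1-driven luciferase reporter stressed by proteasome inhibitor MG132; luminescence from HSF1-driven luciferase expression after 8 hours of MG132 stress.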 Format: functional.

The subject of the next test is Streptococcus. As to the kind of experiment: GAS UMAA2166 growth inhibition – luminescence, BacTiterGlo, counter-screen for streptokinase expression inhibitor project, dose response (AID 1915).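 Note: potency for reduction of bacterial viability or growth.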 The class given is functional, organism-based.
A short description of test [9]: Intein inhibitors as potential Tuberculosis drugs, a cytotoxicity screen. [Related pubchem assays (depositor defined):AID2221, AID2223, AID434968, AID435010, AID449749, AID449750, AID489010]. Format: functional.
A short description of test [10]: blockers of HIV-1 envelope-mediated cell-cell fusion – cherry-pick, dose response (AID 652057). The class given is functional, cell-based.
Test [11] is described as follows: viability loss in CEM21 cells – cell-based, CellTiter-Glo luminescence, cherry-picked, cytotoxicity control for viral fusion inhibitor project, dose response (AID 652042).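 Note: potency for signal decrease meaning cytotoxicity.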 Format: functional. (ATP-based viability assays read luminescence as a measure of living cells.)
A short description of test [12]: blockers of HIV-1 ZM109 envelope-driven cell-cell fusion – HeLa effector, CEM target cells, luciferase, cherry-pick, dose response (AID 652058).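 Note: luciferase signal from HIV-1 Env mediated cell-cell fusion of effector and target cells.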 Format: functional, cell-based.
Test [13] is described as follows: HIV-1 AD8 envelope cell-cell fusion blockers – cherry-pick, dose response (AID 652062).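 Note: luciferase signal from cell-cell fusion driven by HIV-1 clade B AD8 Env; potency is for inhibitors of fusion seen as a drop in luminescence.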 The class given is functional, cell-based.
A short description of test [14]: DRD fibroblast viability loss – cell-based, non-viral oncogenic, luminescence, dose response (AID 1934). The class given is functional. To be noted: Homo sapiens.
For the next test, the system named is SN12K1. As to the kind of experiment: cells. The conditions noted are these: Homo sapiens. The class given is functional.
Another test has as its system P388. Put plainly: cells. The conditions noted are these: Mus musculus. Format: functional.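 Note: compound exposure lasted 48 hours before growth was measured.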

Molecules are shown by their SMILES. Active and inactive are the calls of the source.
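Throughout, for CC50: cells exposed to compound for 72 hours before luminescence readout.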

Chain of Mast/stem cell growth factor receptor Kit (P10721 whole entry): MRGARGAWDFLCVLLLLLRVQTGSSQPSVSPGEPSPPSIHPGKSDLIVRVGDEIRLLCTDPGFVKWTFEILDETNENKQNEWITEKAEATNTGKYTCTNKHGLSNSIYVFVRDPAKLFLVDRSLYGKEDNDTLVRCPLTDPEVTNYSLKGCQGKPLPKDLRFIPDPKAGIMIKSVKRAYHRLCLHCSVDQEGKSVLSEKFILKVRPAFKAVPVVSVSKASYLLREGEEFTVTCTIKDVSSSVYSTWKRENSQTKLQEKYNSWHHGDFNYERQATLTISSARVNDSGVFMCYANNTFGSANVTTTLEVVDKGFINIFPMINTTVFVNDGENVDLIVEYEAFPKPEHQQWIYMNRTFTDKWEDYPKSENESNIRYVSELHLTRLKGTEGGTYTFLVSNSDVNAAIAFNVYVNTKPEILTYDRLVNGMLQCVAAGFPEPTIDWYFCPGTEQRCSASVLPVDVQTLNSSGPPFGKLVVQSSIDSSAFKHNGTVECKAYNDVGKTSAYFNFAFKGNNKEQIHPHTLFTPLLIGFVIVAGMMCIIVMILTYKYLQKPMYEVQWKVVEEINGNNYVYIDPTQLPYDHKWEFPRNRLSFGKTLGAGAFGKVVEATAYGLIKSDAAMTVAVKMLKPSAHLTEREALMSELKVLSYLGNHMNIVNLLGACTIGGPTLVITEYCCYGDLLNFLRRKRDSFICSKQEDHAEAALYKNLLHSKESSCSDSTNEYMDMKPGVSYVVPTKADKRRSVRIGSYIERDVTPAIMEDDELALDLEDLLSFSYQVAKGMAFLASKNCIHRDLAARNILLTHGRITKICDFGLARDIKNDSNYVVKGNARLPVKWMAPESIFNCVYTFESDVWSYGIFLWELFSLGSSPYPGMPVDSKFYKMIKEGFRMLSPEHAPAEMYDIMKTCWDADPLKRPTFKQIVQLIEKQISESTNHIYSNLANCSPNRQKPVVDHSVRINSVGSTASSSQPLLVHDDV

As usually defined, the AC50 is the concentration giving half of the maximal activity seen. As to `O=C(Cc1ccccc1)NC1(O)C(=O)c2ccccc2C1=O`, the AC50 in test [1] was 5.55 µM (active).

In general, Ki refers to the equilibrium dissociation constant of an inhibitor or competing ligand from its target. Turning to `O=C(Nc1cccc(C(F)(F)F)n1)Nc1ccnc2cc(OC(F)F)ccc12`, the Ki in test [2] and in test [3] was > 3.16 µM (inactive) each time.

In the case of `CCC1CC(NS(=O)(=O)C2CC2)CC1c1ncc2cnc3[nH]ccc3n12` (configuration not stated), the Ki was > 6.31 µM (inactive) in test [4], 0.158 µM (active) in test [5] and > 3.16 µM (inactive) in [6].

As usually defined, the EC50 is the concentration needed to bring the measured effect to its halfway point. A word on the CC50: it is the concentration at which the toxic effect on the cells reaches its halfway point. For `Cc1cc(C)c(S(=O)(=O)/N=C2\C=C(Nc3ccc(C(=O)O)cc3)C(=O)c3ccccc32)c(C)c1`, the EC50 is 0.561 µM (active) in test [7], 6.73 µM (active) in [8] and 2.6 µM (active) with Streptococcus. Also, in test [9], the CC50 is 7.89 µM (active). Moreover, the AC50 in test [10] was 12.4 µM (active); in [11] it was 9.3 µM (active); in test [12], 6.51 µM (active); in test [13] it was 9.55 µM (active).

What is called GI50 is the concentration giving 50% growth inhibition. In the case of `COC(=O)c1nc(-c2ccc3c(n2)C(=O)C(=N)C(OC)=C3O)c(N)c(-c2ccc(OC)c(OC)c2O)c1C`, the EC50 in [14] was 13.9 µM (active). Also, the results for the GI50 with SN12K1 and in the test with P388 were 0.537 µM (active) and 1.49 µM (inactive), respectively.
